Test [1] has as its target human ATR (Homo sapiens (Human), UniProt Q13535). Description: ATR binding assay (TR-FRET, displacement of fluorescent tracer A or B). (In general: In TR-FRET formats the signal depends on donor and acceptor labels being close together.)
From the text: To determine of binding activity of the test compounds, full-length human ATR protein was expressed and purified together with ATRIP as described above. Furthermore, a fluorescently labelled compound (either tracer A or B as described above) was used as a tracer molecule. Detection of the binding event of the tracer was achieved by time-resolved fluorescence energy transfer (TR-FRET). We used an anti-GST-Terbium antibody (CisBio) that binds to the GST-tag at the N-terminus of ATR-kinase. […] Displacement of the fluorescent tracer by a test compound leads to a reduction of the TR-FRET-signal.
For the assay 50 nl of a 100-fold concentrated solution of the test compound in DMSO was pipetted into a black low volume 384 well microtiter plate (MTP, Greiner Bio-One, Frickenhausen, Germany). […] The ATR-working solution was incubated for 30 min at 22° C. prior to dispensing to pre-form the complex of antiGST-Tb+GST-ATR+ATRIP. Then, 3 μl of the ATR-working solution were added to the test compound and the mixture was incubated for 10 min at 22° C. to allow pre-binding of the test compounds to ATR/ATRIP. Then, 2 μl of a 100 nM solution of either tracer A or B in assay buffer were added to the ATR-working solution. The resulting mixture was incubated for 30 min at 22° C. […] IC50 values were calculated by a 4 parameter fit using standard software (GraphPad prism or equivalent).
Test [2] deals with HeLa-MaTu-ADR cells. The experiment in a line: Proliferation assay, crystal violet staining. Type of test: cell-based. The following applies: Homo sapiens, 96 h, 4 days incubation, read-out: Inhibition of HeLa-MaTu-ADR cell proliferation.
Method: (§1) After 24 hours, the cells of one plate (zero plate) were dyed with crystal violet (see below), whereas the medium of the other plates was replaced with fresh culture medium (200 μl) to which the test substances were added in various concentrations (0 μM, and also in the range of 0.001-10 μM; the final concentration of the solvent dimethyl sulphoxide was 0.1 or 0.5%). The cells were incubated for 4 days in the presence of the test substances. […] After washing the fixed cells three times with water, the plates were dried at room temperature. The cells were stained by adding 100 μl/measurement point of a 0.1% strength crystal violet solution (pH adjusted to pH 3 by adding acetic acid). After washing the cells three times with water, the plates were dried at room temperature. The dye was dissolved by adding 100 μl/measurement point of a 10% strength acetic acid solution. […] The percentage change in cell growth was calculated by normalizing the measured values to the absorbance values of the zero plate (=0%) and the absorbance of the untreated (0 W) cells (=100%). The IC50 values were determined by means of a four parameter fit.
Test [3] relates to DU145 cells. The experiment in a line: Proliferation assay, crystal violet staining. The following applies: Homo sapiens, DU-145, 96 h, read-out: Inhibition of DU145 cell proliferation, DU145 cells, 4 days incubation.
Method: as §1
Test [4] has as its system Caco-2 cells. Description: Proliferation assay, crystal violet staining. It is filed as cell-based. The conditions noted are these: Homo sapiens, Caco-2, 96 h, 4 days incubation, read-out: Inhibition of Caco-2 cell proliferation.
Method: as §1
Test [5] concerns HeLa cells. The experiment in a line: Proliferation assay, crystal violet staining. The conditions noted are these: Homo sapiens, 96 h.
For test [6], the system named is B16F10 cells. Description: Proliferation assay, crystal violet staining. The conditions noted are these: B16-F10, 96 h, read-out: Inhibition of B16F10 cell proliferation.
Method: Human tumour cells (Table 8) were originally obtained from the American Type Culture Collection (ATCC), the Deutsche Sammlung von Mikroorganismen and Zellkulturen (DSMZ, German Collection of Microorganisms and Cell Cultures), or Epo GmbH Berlin. […] After 24 hours, the cells of one plate (zero plate) were dyed with crystal violet (see below), whereas the medium of the other plates was replaced with fresh culture medium (200 μl) to which the test substances were added in various concentrations (0 μM, and also in the range of 0.001-10 μM; the final concentration of the solvent dimethyl sulphoxide was 0.1 or 0.5%). The cells were incubated for 4 days in the presence of the test substances. […] After washing the fixed cells three times with water, the plates were dried at room temperature. The cells were stained by adding 100 μl/measurement point of a 0.1% strength crystal violet solution (pH adjusted to pH 3 by adding acetic acid). After washing the cells three times with water, the plates were dried at room temperature. The dye was dissolved by adding 100 μl/measurement point of a 10% strength acetic acid solution. […] The percentage change in cell growth was calculated by normalizing the measured values to the absorbance values of the zero plate (=0%) and the absorbance of the untreated (0 W) cells (=100%). The IC50 values were determined by means of a four parameter fit.
The subject of test [7] is NCI-H460 cells. The experiment in a line: Proliferation assay, crystal violet staining. The following applies: Homo sapiens, NCI-H460, 96 h, read-out: Inhibition of NCI-H460 cell proliferation, NCI-H460 cells, 4 days incubation.
Method: as §1
Where [8] appears, read: read-out: Inhibition of HeLa cell proliferation, HeLa cells, 4 days incubation.

Like-named read-outs stand apart in the source and are kept apart here. A value given as a limit tells only on which side of the number the result lay.

Chain of human ATR (Q13535 other isoform, or with tags, fused parts or gaps): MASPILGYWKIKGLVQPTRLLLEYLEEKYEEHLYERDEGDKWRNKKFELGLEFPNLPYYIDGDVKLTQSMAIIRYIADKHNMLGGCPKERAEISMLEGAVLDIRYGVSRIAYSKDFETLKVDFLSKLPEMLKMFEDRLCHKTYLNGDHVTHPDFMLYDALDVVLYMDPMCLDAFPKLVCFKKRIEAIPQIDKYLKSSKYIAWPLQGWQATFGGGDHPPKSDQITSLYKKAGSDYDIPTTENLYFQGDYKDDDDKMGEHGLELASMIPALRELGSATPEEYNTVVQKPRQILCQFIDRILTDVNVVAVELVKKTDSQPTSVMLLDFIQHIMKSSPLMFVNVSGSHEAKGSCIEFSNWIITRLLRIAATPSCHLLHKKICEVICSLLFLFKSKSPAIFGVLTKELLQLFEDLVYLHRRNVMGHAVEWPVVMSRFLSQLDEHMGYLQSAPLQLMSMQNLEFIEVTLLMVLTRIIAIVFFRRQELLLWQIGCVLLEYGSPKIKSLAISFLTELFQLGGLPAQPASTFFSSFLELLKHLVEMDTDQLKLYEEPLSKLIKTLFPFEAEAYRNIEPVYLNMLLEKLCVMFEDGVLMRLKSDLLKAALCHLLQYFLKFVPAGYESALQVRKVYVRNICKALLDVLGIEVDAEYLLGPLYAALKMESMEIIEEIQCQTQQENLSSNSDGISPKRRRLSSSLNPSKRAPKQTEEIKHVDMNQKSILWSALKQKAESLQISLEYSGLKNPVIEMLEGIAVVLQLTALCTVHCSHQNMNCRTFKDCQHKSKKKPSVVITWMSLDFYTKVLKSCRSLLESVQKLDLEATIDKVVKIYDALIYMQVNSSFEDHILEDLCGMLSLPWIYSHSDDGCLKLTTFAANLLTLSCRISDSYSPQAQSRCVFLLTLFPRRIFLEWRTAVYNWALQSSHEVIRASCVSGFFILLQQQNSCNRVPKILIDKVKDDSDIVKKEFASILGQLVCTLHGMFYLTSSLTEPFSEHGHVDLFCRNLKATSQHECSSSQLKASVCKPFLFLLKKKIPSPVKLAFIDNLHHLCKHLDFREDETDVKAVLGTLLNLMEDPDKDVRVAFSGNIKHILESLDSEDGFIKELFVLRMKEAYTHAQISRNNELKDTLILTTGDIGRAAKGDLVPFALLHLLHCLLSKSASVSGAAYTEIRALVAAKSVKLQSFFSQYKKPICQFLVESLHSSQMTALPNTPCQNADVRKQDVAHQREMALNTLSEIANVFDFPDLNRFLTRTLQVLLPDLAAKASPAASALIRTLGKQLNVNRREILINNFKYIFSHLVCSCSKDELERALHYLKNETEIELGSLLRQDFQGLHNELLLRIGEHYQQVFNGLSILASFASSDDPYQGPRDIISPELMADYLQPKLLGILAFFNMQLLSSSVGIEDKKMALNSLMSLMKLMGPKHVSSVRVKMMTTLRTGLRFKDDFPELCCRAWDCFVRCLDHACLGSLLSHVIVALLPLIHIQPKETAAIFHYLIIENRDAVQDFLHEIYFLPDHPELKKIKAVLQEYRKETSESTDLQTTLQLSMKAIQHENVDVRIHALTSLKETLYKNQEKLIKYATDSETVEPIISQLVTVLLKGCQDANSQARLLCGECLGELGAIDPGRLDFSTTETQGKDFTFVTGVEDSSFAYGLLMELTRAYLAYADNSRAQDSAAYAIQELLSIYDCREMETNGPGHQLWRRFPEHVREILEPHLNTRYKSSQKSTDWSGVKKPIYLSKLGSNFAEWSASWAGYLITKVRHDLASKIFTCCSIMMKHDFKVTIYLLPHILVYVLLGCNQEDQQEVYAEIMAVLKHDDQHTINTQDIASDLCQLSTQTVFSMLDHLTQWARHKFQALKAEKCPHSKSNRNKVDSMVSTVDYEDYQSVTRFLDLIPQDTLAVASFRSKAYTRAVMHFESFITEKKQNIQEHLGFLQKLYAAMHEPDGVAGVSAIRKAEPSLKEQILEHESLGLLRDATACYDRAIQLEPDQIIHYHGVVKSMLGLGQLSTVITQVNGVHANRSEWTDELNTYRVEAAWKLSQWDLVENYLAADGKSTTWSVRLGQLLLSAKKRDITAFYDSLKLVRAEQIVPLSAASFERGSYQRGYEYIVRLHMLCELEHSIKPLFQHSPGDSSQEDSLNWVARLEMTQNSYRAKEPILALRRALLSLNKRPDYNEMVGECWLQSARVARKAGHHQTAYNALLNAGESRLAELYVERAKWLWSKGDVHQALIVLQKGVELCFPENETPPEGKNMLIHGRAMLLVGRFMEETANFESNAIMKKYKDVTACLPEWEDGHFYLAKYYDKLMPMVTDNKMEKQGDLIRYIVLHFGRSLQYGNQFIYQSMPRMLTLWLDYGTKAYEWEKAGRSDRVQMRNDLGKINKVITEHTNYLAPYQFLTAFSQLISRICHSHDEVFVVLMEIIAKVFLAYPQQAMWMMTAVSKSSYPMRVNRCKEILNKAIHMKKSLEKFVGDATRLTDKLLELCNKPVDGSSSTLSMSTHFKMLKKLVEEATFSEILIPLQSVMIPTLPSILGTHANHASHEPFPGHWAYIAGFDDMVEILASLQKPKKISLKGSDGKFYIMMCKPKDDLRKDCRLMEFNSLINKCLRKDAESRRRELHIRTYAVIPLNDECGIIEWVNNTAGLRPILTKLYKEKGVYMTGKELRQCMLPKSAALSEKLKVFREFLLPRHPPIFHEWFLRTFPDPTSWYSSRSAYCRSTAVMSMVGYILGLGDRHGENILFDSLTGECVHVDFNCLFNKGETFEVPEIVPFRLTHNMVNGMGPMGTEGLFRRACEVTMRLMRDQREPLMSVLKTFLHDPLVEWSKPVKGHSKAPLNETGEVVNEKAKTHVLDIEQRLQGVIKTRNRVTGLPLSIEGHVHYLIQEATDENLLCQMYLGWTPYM
Chain of human ATR (Q8WXE1 other isoform, or with tags, fused parts or gaps partner): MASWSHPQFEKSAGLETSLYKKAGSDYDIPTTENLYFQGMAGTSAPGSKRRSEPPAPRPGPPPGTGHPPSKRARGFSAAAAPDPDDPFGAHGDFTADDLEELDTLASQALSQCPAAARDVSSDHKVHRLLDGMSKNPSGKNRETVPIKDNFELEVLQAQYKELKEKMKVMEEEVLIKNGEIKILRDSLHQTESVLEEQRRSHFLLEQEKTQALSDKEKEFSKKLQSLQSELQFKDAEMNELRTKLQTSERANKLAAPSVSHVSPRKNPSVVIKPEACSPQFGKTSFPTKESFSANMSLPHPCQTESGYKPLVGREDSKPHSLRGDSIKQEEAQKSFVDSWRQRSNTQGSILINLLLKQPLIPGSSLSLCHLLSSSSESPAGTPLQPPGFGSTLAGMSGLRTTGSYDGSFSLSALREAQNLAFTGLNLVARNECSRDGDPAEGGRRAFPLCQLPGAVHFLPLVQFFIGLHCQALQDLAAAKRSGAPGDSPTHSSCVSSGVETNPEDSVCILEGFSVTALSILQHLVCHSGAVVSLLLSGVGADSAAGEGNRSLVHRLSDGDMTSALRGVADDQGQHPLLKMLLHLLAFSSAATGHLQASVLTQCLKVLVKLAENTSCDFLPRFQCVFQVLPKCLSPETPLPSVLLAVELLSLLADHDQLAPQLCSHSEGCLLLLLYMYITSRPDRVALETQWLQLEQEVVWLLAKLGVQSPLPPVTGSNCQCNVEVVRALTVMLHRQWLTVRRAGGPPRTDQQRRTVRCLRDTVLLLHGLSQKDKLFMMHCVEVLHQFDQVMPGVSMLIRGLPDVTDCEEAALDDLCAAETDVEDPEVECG

Consider `CC1(C)C[C@@H]2C[C@@](C)(CN2c2cc(N3CCOCC3)nc3c(-c4ccn[nH]4)nccc23)C1` (stereo in doubt) [Example 421, 2-(morpholin-4-yl)-8-(1H-pyrazol-5-yl)-4-[1,3,3-trimethyl-6-azabicyclo[3.2.1]oct-6-yl]-1,7-naphthyridine], for which the IC50 in test [1] came out at 1790 nM.
With `CCOP(C)(=O)c1cc(N2CCOC[C@H]2C)nc2c(-c3ccn[nH]3)nccc12` (stereo partly drawn) [Example 125, ethyl methyl{2-[(3R)-3-methylmorpholin-4-yl]-8-(1H-pyrazol-5-yl)-1,7-naphthyridin-4-yl}phosphinate], the IC50 in test [2] is above 3000 nM; in test [3] it was 712 nM; in test [4] it was above 3000 nM; in test [5] (read-out: Inhibition of HeLa cell proliferation), 705 nM; in test [6], above 3000 nM.
For `CC(C)S(=O)(=O)c1cc(N2CCOCC2)nc2c(-c3ccn[nH]3)nccc12` [Example 199, 2-(morpholin-4-yl)-4-(propan-2-ylsulfonyl)-8-(1H-pyrazol-5-yl)-1,7-naphthyridine], the IC50 is 320 nM in test [7]; 965 nM in test [2]; 244 nM in test [3]; 708 nM in test [4]; 857 nM in test [5] (setting [8]).
For `C[C@@H]1COCCN1c1cc(-c2ccn[nH]2)c2ccnc(-c3ccn[nH]3)c2n1` [Example 205, 2-[(3R)-3-methylmorpholin-4-yl]-4,8-di(1H-pyrazol-5-yl)-1,7-naphthyridine], the IC50 in test [7] was found to be 219 nM; in test [2], 1490 nM; in test [3], 652 nM; in test [4], 1240 nM; in test [5] (setting [8]), 672 nM.
On the same counts, the results for `O=S1(=O)CCCN1c1cc(N2CCOCC2)nc2c(-c3ccn[nH]3)nccc12` [Example 216, 4-(1,1-dioxido-1,2-thiazolidin-2-yl)-2-(morpholin-4-yl)-8-(1H-pyrazol-5-yl)-1,7-naphthyridine] are 1110 nM, above 3000 nM, 1660 nM, above 3000 nM and 1010 nM.
On the same counts, the results for `COc1ncccc1-c1cc(N2CCOC[C@H]2C)nc2c(-c3ccn[nH]3)nccc12` [Example 220, 4-(2-methoxypyridin-3-yl)-2-[(3R)-3-methylmorpholin-4-yl]-8-(1H-pyrazol-5-yl)-1,7-naphthyridine] are 303 nM, 993 nM, 334 nM, above 1000 nM and 604 nM.
In the case of `C[C@@H]1COCCN1c1cc(-c2ccc(F)nc2F)c2ccnc(-c3ccn[nH]3)c2n1` [Example 228, 4-(2,6-difluoropyridin-3-yl)-2-[(3R)-3-methylmorpholin-4-yl]-8-(1H-pyrazol-5-yl)-1,7-naphthyridine], the IC50 in test [7] came out at 233 nM; in test [2], 594 nM; in test [3], 313 nM; in test [4] it was 637 nM; in test [5] (setting [8]), 225 nM.
Take `CC(C)S(=O)(=Nc1cc(N2CCOC[C@H]2C)nc2c(-c3ccn[nH]3)nccc12)c1ccc(Br)cc1` (stereo partly drawn) [Example 275]: in test [1], the IC50 worked out at 304 nM.
Consider `C[C@@H]1COCCN1c1cc(C2(S(C)(=O)=O)CC2)c2ccnc(-c3ccn[nH]3)c2n1` [Example 286, 2-[(3R)-3-methylmorpholin-4-yl]-4-[1-(methylsulfonyl)cyclopropyl]-8-(1H-pyrazol-5-yl)-1,7-naphthyridine], for which the IC50 in test [7] stood at 75.6 nM; in test [2], 882 nM; in test [3], 48.6 nM; in test [4], 529 nM; in test [5] (setting [8]), 293 nM.
Taken in the same sequence, the figures for `Cn1nccc1-c1cc(N2CCOCC2)nc2c(-c3ccn[nH]3)nccc12` [Example 348, 4-(1-methyl-1H-pyrazol-5-yl)-2-(morpholin-4-yl)-8-(1H-pyrazol-5-yl)-1,7-naphthyridine] were 399 nM, 940 nM, 518 nM, 822 nM and 613 nM.
